From US20080008754A1, “Pharmaceutical Compositions Comprising (+)-(2S,3S)-2-(3-Chlorophenyl)-3,5,5-Trimethyl-2-Morpholinol” (SMITHKLINE BEECHAM CORPORATION, priority 2004, published 2008)

Assay: Solubility in an acidic environment
Format: physicochemical
Conditions: aqueous buffer

- solubility: ~150 mg/mL
SMILES: C[C@@H]1NC(C)(C)CO[C@@]1(O)c1cccc(Cl)c1 [compound of formula (I), (+)-(2S,3S)-2-(3-chlorophenyl)-3,5,5-trimethyl-2-morpholinol]
